Patent US11111234B2, “Salt of a quinazoline derivative-like tyrosine kinase inhibitor and crystal form thereof” (Xuanzhu Pharma Co., Ltd., priority 2016, dated 2021)
Structures can show the parent of a compound that is named as a salt.

What was measured:
Assay type in all cases: physicochemical
[1] = Study on stability (high temperature, high moisture, light; purity by HPLC and XRD); settings: for XRD: compared with the XRD pattern at Day 0
Method: The Crystal form A of the maleate of the compound of Formula (1) and the hydrochloride of the compound of Formula (1) were kept at 70° C. for 3 d, and the samples were taken at Day 1 and Day 3, respectively, and were tested for purity and XRD, which were compared with those of the sample at Day 0.
The Crystal form A of the maleate of the compound of Formula (1) was kept under conditions of high moisture (25° C., RH92.5%) for 5 d, or under condition of light (4500LX±500LX) for 10 d, and was tested for purity and XRD, which were compared with those of the sample at Day 0.
Purity measurement: measurement was performed in accordance with High Performance Liquid Chromatography in Appendix II V D in Pharmacopoeia of the People's Republic of China (2010) Volume II.
XRD test: the same as described in Example 1.

[2] = Study on hygroscopicity (pharmaceutical hygroscopicity test, General Rule 9103 ChP 2015)
Method: measurement was performed in accordance with the Guidelines for pharmaceutical hygroscopicity test in General Rule 9103 of Pharmacopoeia of the People's Republic of China (2015) Volume IV.

[3] = Study on solubility (HPLC)
Method: measurement was performed in accordance with High Performance Liquid Chromatography in Appendix II V D in Pharmacopoeia of the People's Republic of China (2010) Volume II.

For `COc1cc2ncnc(Nc3ccc(F)c(Cl)c3)c2cc1NC(=O)/C=C/CN1CC2(CCC2)C1` [Crystal form A of the maleate of the compound of Formula (1)] [(E)-N-(4-((3-chloro-4-fluorophenyl)amino)-7-methoxylquinazolin-6-yl)-4-(2-azaspiro[3.3]heptan-2-yl)-2-butenamide], the “purity (%)” value ([1]; 25° C., RH92.5%, standing time 0 d) was 98.6%, the “purity (%)” value ([1]; 25° C., RH92.5%, standing time 5 d) was 98.4% and the XRD ([1]; 70° C., 1 d) was “the same as”. The XRD ([1]; 70° C., 3 d) was “the same as”, the “purity (%)” value ([1]; 70° C., standing time 0 d) was 98.4% and the “purity (%)” value ([1]; 70° C., standing time 1 d) was 98.0%. The “purity (%)” value ([1]; 70° C., standing time 3 d) was 97.4%, the XRD ([1]; light 4500LX ± 500LX, 10 d) was “the same as” and the “purity (%)” value ([1]; light 4500LX ± 500LX, standing time 0 d) was 98.6%. The “purity (%)” value ([1]; light 4500LX ± 500LX, standing time 10 d) was 98.4%, the change in purity ([1]; light (4500LX±500LX) 10 d, high moisture (25° C., RH92.5%) 5 d, or high temperature (70° C.) 3 d) was “No apparent change in purity” and the “Hygroscopic weight gain(%)” value [2] was 0.07%. For the same molecule, the Hygroscopicity result [2] was “No or almost no”, the “hygroscopicity compared with the hydrochloride” value [2] was “lower hygroscopicity” and the solubility ([3]; H2O) was 4411.5 µg/mL. It also gave a solubility ([3]; pH of solution 1.0) of 20277.8 µg/mL, a solubility ([3]; pH of solution 4.5) of 9748.4 µg/mL and a solubility ([3]; pH of solution 6.5) of 89.1 µg/mL. For the same molecule, the solubility ([3]; pH of solution 7.4) was 68.9 µg/mL and the “solubility compared with the hydrochloride” value ([3]; under various pH conditions) was “higher solubility”.
With `COc1cc2ncnc(Nc3ccc(F)c(Cl)c3)c2cc1NC(=O)/C=C/CN1CC2(CCC2)C1` [Hydrochloride of the compound of Formula (1)] [(E)-N-(4-((3-chloro-4-fluorophenyl)amino)-7-methoxylquinazolin-6-yl)-4-(2-azaspiro[3.3]heptan-2-yl)-2-butenamide] the “purity (%)” value ([1]; 70° C., standing time 0 d) was 98.4%, the “purity (%)” value ([1]; 70° C., standing time 1 d) was 92.5% and the “purity (%)” value ([1]; 70° C., standing time 3 d) was 89.0%. The decrease in purity ([1]; high temperature (70° C.) for 3 d) was 9.4%, the “Hygroscopic weight gain(%)” value [2] was 7.8% and the solubility ([3]; H2O) was 2200.6 µg/mL. The solubility ([3]; pH of solution 1.0) was 3255.8 µg/mL, the solubility ([3]; pH of solution 4.5) was 1883.0 µg/mL and the solubility ([3]; pH of solution 6.5) was 17.6 µg/mL. The solubility ([3]; pH of solution 7.4) was 11.2 µg/mL.
